Where two headings read alike, the source gives them in different places. Numbered stars: 1 amine (or outer) side, 2 acyl side, 3 side chain; on linkers, the order of the positions; unused ones are H or OH. Bridge positions count the residues as written; N and C are the ends. Square brackets hold non-standard residues; d marks the D form. Peptide text beside a SMILES is read from it. * marks the point of attachment. C20 diacid = O=C(O)CCCCCCCCCCCCCCCCCCC(=O)*; γGlu = O=C(O)[C@H](CCC(=O)[*:2])N[*:1]; NMeI = CC[C@H](C)[C@H](NC)C(=O)O; Sar = CNCC(=O)O
Legend:
[1] = biological target: T1, human calcitonin receptor (hCTR2) (Homo sapiens, UniProt P30988); experiment: hCTR2 assay: induction of cAMP (AlphaScreen cAMP Assay kit) in COS7 cells expressing hCTR2; type: cell-based
T1 construct: expressed in transfected cells
T1 sequence (P30988 25-474): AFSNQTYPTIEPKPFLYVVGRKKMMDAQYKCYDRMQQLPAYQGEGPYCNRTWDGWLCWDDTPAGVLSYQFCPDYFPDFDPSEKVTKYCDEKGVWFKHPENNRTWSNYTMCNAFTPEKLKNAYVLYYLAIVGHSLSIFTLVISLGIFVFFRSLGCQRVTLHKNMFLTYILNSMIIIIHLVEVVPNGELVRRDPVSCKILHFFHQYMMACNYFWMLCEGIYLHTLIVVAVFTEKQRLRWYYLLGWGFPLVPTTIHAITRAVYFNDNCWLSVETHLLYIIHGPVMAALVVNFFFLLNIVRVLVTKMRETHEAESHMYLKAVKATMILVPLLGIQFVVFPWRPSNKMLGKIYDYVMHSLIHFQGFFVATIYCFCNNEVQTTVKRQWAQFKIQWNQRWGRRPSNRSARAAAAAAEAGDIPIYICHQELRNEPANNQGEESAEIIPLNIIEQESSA
How it was run: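 Peptide-induced cAMP in hCTR2-expressing COS7 cells, 15 min at 37° C with phosphodiesterase inhibitor IBMX (100 µM), detected by AlphaScreen; potency from 4PL curves.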

[2] = biological target: T2, human amylin receptor 3 (hAMYR3) consisting of hCTR2 co-expressed with human Receptor Activity Modifying Protein 3 (hRAMP3) (Homo sapiens, UniProt O60896+P30988); experiment: hAMYR3 assay: induction of cAMP (AlphaScreen cAMP Assay kit) in COS7 cells expressing hAMYR3; type: cell-based; settings: cAMP induction in COS7 cells expressing hAMYR3; average of a minimum of 3 determinations; read-out: hAMY R3 EC50
T2 construct: expressed in transfected cells
T2 sequence (P30988 25-474): T1 sequence (P30988 25-474)
T2 sequence (O60896 24-148 partner): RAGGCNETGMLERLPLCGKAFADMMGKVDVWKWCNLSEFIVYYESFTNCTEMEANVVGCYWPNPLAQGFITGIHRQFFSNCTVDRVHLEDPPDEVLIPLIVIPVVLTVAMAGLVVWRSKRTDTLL
How it was run: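 cAMP accumulation read by AlphaScreen in lysates of RAMP-naive COS7 cells stably transfected with hCTR2 plus hRAMP3. Cells exposed to peptide dilutions for 15 min, 37° C, with 100 µM IBMX; 4PL fitting gave EC50 and efficacy relative to pramlintide.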

[3] = Solubility assessment (turbidity absorbance at 325 nm); type: physicochemical; settings: stock 2 mg/ml diluted 1:1, ambient temperature (typically 25°C), n=1; for Solubility, Acetate buffer pH 4: 100 mM acetate buffer pH 4.0; for Solubility, Acetate buffer pH 5: 100 mM acetate buffer pH 5.0; for Solubility, Histidine buffer pH 6: 100 mM histidine buffer pH 6.0; for Solubility, Histidine buffer pH 7: 100 mM histidine buffer pH 7.0; for Solubility, Phosphate buffer pH 6: 100 mM phosphate buffer pH 6.0; for Solubility, Phosphate buffer pH 7: 100 mM phosphate buffer pH 7.0; for Solubility, Phosphate buffer pH 7.5: 100 mM phosphate buffer pH7.5
How it was run: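 Turbidimetric screen across pH 4.0–7.5 in 100 mM acetate, histidine and phosphate buffers. A 2 mg/ml peptide stock (pH 2.5) was diluted 1:1 into each, then A325 measured at ambient temperature; values ≤ 0.02 AU denoted solubility of 1 mg/ml or more.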

[4] = cAMP induction in COS7 cells expressing hCTR2, average of a minimum of 3 determinations, read-out: hCTR2 EC50

EC50 [1, 4] [nM]	EC50 [2] [nM]	Solubility, Acetate buffer pH 4 [3]	Solubility, Acetate buffer pH 5 [3]	Solubility, Histidine buffer pH 6 [3]	Solubility, Histidine buffer pH 7 [3]	Solubility, Phosphate buffer pH 6 [3]	Solubility, Phosphate buffer pH 7 [3]	Solubility, Phosphate buffer pH 7.5 [3]	Compound	EC50 [1] [nM]
0.11	0.2	SS (SS indicates solubility ≥ 1mg/ml)	SS (SS indicates solubility ≥ 1mg/ml)	SS (SS indicates solubility ≥ 1mg/ml)	SS (SS indicates solubility ≥ 1mg/ml)	SS (SS indicates solubility ≥ 1mg/ml)	SS (SS indicates solubility ≥ 1mg/ml)	SS (SS indicates solubility ≥ 1mg/ml)	CC[C@H](C)[C@@H](C(=O)N[C@@H](CC(C)C)C(=O)N[C@@H](CO)C(=O)N[C@@H](CO)C(=O)N[C@H](C(=O)N[C@@H](CCC(=O)O)C(=O)N[C@H](C(=O)NCC(=O)N[C@@H](CO)C(=O)N[C@@H](CCC(=O)O)C(=O)N[C@H](C(=O)N1CCC[C@H]1C(N)=O)[C@@H](C)O)C(C)C)[C@@H](C)O)N(C)C(=O)[C@H](C)NC(=O)CN(C)C(=O)[C@H](Cc1ccccc1)NC(=O)[C@H](CO)NC(=O)[C@H](CO)NC(=O)[C@H](CO)NC(=O)[C@H](CO)NC(=O)[C@H](CCCNC(=N)N)NC(=O)[C@H](Cc1c[nH]cn1)NC(=O)[C@H](CC(C)C)NC(=O)[C@H](Cc1ccccc1)NC(=O)[C@H](CCC(=O)O)NC(=O)[C@H](C)NC(=O)[C@H](CC(C)C)NC(=O)[C@H](CCCNC(=N)N)NC(=O)CNC(=O)[C@@H](NC(=O)[C@H](C)NC(=O)[C@@H]1CSSC[C@H](NC(=O)[C@H](CCCNC(=N)N)NC(=O)CC[C@H](NC(=O)CCCCCCCCCCCCCCCCCCC(=O)O)C(=O)O)C(=O)N[C@@H](CC(N)=O)C(=O)N[C@@H]([C@@H](C)O)C(=O)N[C@@H](C)C(=O)N[C@@H]([C@@H](C)O)C(=O)N1)[C@@H](C)O [Compound 122, [19CD]-isoGlu-RC()NTATC()ATGRLAEFLHRSSSSF-Gly(Me)-A-Ile(Me)-LSSTEVGSETP-NH2] ({C20 diacid-γGlu}-RCNTATCATGRLAEFLHRSSSSF[Sar]A[NMeI]LSSTEVGSETP-NH2; disulfide 2-7)	–
0.28	0.29	SS (SS indicates solubility ≥ 1mg/ml)	SS (SS indicates solubility ≥ 1mg/ml)	SS (SS indicates solubility ≥ 1mg/ml)	SS (SS indicates solubility ≥ 1mg/ml)	SS (SS indicates solubility ≥ 1mg/ml)	SS (SS indicates solubility ≥ 1mg/ml)	SS (SS indicates solubility ≥ 1mg/ml)	CC[C@H](C)[C@@H](C(=O)N[C@@H](CC(C)C)C(=O)N[C@@H](CO)C(=O)N[C@@H](CO)C(=O)N[C@H](C(=O)N[C@@H](CCC(=O)O)C(=O)N[C@H](C(=O)NCC(=O)N[C@@H](CO)C(=O)N[C@@H](CCC(=O)O)C(=O)N[C@H](C(=O)N1CCC[C@H]1C(N)=O)[C@@H](C)O)C(C)C)[C@@H](C)O)N(C)C(=O)[C@H](C)NC(=O)CN(C)C(=O)[C@H](Cc1ccccc1)NC(=O)[C@H](CO)NC(=O)[C@H](CO)NC(=O)[C@H](CO)NC(=O)[C@H](CO)NC(=O)[C@H](CCCNC(=N)N)NC(=O)[C@H](Cc1c[nH]cn1)NC(=O)[C@H](CC(C)C)NC(=O)[C@H](Cc1ccccc1)NC(=O)[C@H](CCC(=O)O)NC(=O)[C@H](C)NC(=O)[C@H](CC(C)C)NC(=O)[C@H](CCCNC(=N)N)NC(=O)[C@@H](NC(=O)[C@@H](NC(=O)[C@H](C)NC(=O)[C@@H]1CSSC[C@H](NC(=O)[C@H](CCCNC(=N)N)NC(=O)CC[C@H](NC(=O)CCCCCCCCCCCCCCCCCCC(=O)O)C(=O)O)C(=O)N[C@@H](CC(N)=O)C(=O)N[C@@H]([C@@H](C)O)C(=O)N[C@@H](C)C(=O)N[C@@H]([C@@H](C)O)C(=O)N1)[C@@H](C)O)[C@@H](C)O [Compound 123, [19CD]-isoGlu-RC()NTATC()ATTRLAEFLHRSSSSF-Gly(Me)-A-Ile(Me)-LSSTEVGSETP-NH2] ({C20 diacid-γGlu}-RCNTATCATTRLAEFLHRSSSSF[Sar]A[NMeI]LSSTEVGSETP-NH2; disulfide 2-7)	–
0.14	0.17	SS (SS indicates solubility ≥ 1mg/ml)	SS (SS indicates solubility ≥ 1mg/ml)	SS (SS indicates solubility ≥ 1mg/ml)	SS (SS indicates solubility ≥ 1mg/ml)	SS (SS indicates solubility ≥ 1mg/ml)	SS (SS indicates solubility ≥ 1mg/ml)	SS (SS indicates solubility ≥ 1mg/ml)	CC[C@H](C)[C@@H](C(=O)N[C@@H](CC(C)C)C(=O)N[C@@H](CO)C(=O)N[C@@H](CO)C(=O)N[C@H](C(=O)N[C@@H](CCC(=O)O)C(=O)N[C@H](C(=O)NCC(=O)N[C@@H](CO)C(=O)N[C@@H](CCC(=O)O)C(=O)N[C@H](C(=O)N1CCC[C@H]1C(N)=O)[C@@H](C)O)C(C)C)[C@@H](C)O)N(C)C(=O)[C@H](C)NC(=O)CN(C)C(=O)[C@H](Cc1ccccc1)NC(=O)[C@H](CO)NC(=O)[C@H](CO)NC(=O)[C@H](CO)NC(=O)[C@H](CO)NC(=O)[C@H](CCCNC(=N)N)NC(=O)[C@H](Cc1c[nH]cn1)NC(=O)[C@H](CC(C)C)NC(=O)[C@H](Cc1ccccc1)NC(=O)[C@H](CCC(=O)O)NC(=O)[C@H](C)NC(=O)[C@H](CC(C)C)NC(=O)[C@H](CCCNC(=N)N)NC(=O)[C@H](CO)NC(=O)[C@@H](NC(=O)[C@H](C)NC(=O)[C@@H]1CSSC[C@H](NC(=O)[C@H](CCCNC(=N)N)NC(=O)CC[C@H](NC(=O)CCCCCCCCCCCCCCCCCCC(=O)O)C(=O)O)C(=O)N[C@@H](CC(N)=O)C(=O)N[C@@H]([C@@H](C)O)C(=O)N[C@@H](C)C(=O)N[C@@H]([C@@H](C)O)C(=O)N1)[C@@H](C)O [Compound 124, [19CD]-isoGlu-RC()NTATC()ATSRLAEFLHRSSSSF-Gly(Me)-A-Ile(Me)-LSSTEVGSETP-NH2] ({C20 diacid-γGlu}-RCNTATCATSRLAEFLHRSSSSF[Sar]A[NMeI]LSSTEVGSETP-NH2; disulfide 2-7)	–

Compound	EC50 [1, 4] [nM]	EC50 [2] [nM]	Solubility, Acetate buffer pH 4 [3]	Solubility, Acetate buffer pH 5 [3]	Solubility, Histidine buffer pH 6 [3]	Solubility, Histidine buffer pH 7 [3]	Solubility, Phosphate buffer pH 6 [3]	Solubility, Phosphate buffer pH 7 [3]	Solubility, Phosphate buffer pH 7.5 [3]	EC50 [1] [nM]
CC[C@H](C)[C@@H](C(=O)N[C@@H](CC(C)C)C(=O)N[C@@H](CO)C(=O)N[C@@H](CO)C(=O)N[C@H](C(=O)N[C@@H](CCC(=O)O)C(=O)N[C@H](C(=O)NCC(=O)N[C@@H](CO)C(=O)N[C@@H](CCC(=O)O)C(=O)N[C@H](C(=O)N1CCC[C@H]1C(N)=O)[C@@H](C)O)C(C)C)[C@@H](C)O)N(C)C(=O)[C@H](C)NC(=O)CN(C)C(=O)[C@H](Cc1ccccc1)NC(=O)[C@H](CO)NC(=O)[C@H](CO)NC(=O)[C@H](CO)NC(=O)[C@H](CO)NC(=O)[C@H](CCCNC(=N)N)NC(=O)[C@H](Cc1c[nH]cn1)NC(=O)[C@H](CC(C)C)NC(=O)[C@H](Cc1ccccc1)NC(=O)[C@H](CCC(=O)O)NC(=O)[C@H](C)NC(=O)[C@H](CC(C)C)NC(=O)[C@H](CCCNC(=N)N)NC(=O)[C@H](CCC(N)=O)NC(=O)[C@@H](NC(=O)[C@H](C)NC(=O)[C@@H]1CSSC[C@H](NC(=O)[C@H](CCCNC(=N)N)NC(=O)CC[C@H](NC(=O)CCCCCCCCCCCCCCCCCCC(=O)O)C(=O)O)C(=O)N[C@@H](CO)C(=O)N[C@@H]([C@@H](C)O)C(=O)N[C@@H](C)C(=O)N[C@@H]([C@@H](C)O)C(=O)N1)[C@@H](C)O [Compound 126, [19CD]-isoGlu-RC()STATC()ATQRLAEFLHRSSSSF-Gly(Me)-A-Ile(Me)-LSSTEVGSETP-NH2] ({C20 diacid-γGlu}-RCSTATCATQRLAEFLHRSSSSF[Sar]A[NMeI]LSSTEVGSETP-NH2; disulfide 2-7)	–	0.28	SS (SS indicates solubility ≥ 1mg/ml)	SS (SS indicates solubility ≥ 1mg/ml)	SS (SS indicates solubility ≥ 1mg/ml)	SS (SS indicates solubility ≥ 1mg/ml)	SS (SS indicates solubility ≥ 1mg/ml)	SS (SS indicates solubility ≥ 1mg/ml)	SS (SS indicates solubility ≥ 1mg/ml)	0.21

— EP3046573B1, “AMYLIN ANALOGUES” (Zealand Pharma A/S, priority 2013, dated 2015)
